{
  "source": "patent US4076849A",
  "about": "“Control of nitrosamine formation in nitrite cured meat” (Canada Packers Limited, priority 1975, dated 1978)",
  "key": {"[1]": {"experiment": "Nitrosamine content after frying cured bacon slices streaked with a soya oil solution of the aromatic secondary amine", "details": "100 ppm", "method": "In the case of o-methoxy-N-dodecylaminobenzene samples were tested at 100, 200 and 300 ppm levels. The controls were streaked with oil alone."}, "[2]": {"details": "in vivo; cited from earlier work"}, "[3]": {"details": "Table III, controls (ppb): Ex 30 76.0 and 60.0, 31 29.0, 32-33 42.5, 34 32.5, 35-39 28.2, 40 17.5, 41 20.0, 42 19.1, 43-44 34.0, 45 23.0, below about 3 ppb is below accurate detection level"}},
  "data": [
    {"smiles": "CCCCCCCCCCCCNc1ccccc1", "note": "[Example 47, N-Dodecylaminobenzene]", "values": [
      {"measurement": "NITROSAMINES Test", "setting": "[1]; Table IV, controls (ppb): Ex 46 34.0, 47 76.0, 48-49 41.0, 50-54 36.2", "value": 16.0, "unit": "ppb"}
    ]},
    {"smiles": "CCOc1ccc(NC(C)(C)C)cc1", "note": "[Example 42, p-Ethoxy-N-t-butylaminobenzene]", "values": [
      {"measurement": "NITROSAMINES Test", "setting": "[1]; [3]", "value": 2.2, "unit": "ppb"}
    ]},
    {"smiles": "O=NN1CCCC1", "note": "[N-nitrosopyrrolidine]", "values": [
      {"measurement": "carcinogenic in tests on experimental animals", "setting": "[2]", "value": "carcinogenic"}
    ]},
    {"smiles": "CN(C)N=O", "note": "[dimethylnitrosamine]", "values": [
      {"measurement": "carcinogenic in tests on experimental animals", "setting": "[2]", "value": "carcinogenic"}
    ]},
    {"smiles": "CCCCCCCCCCCCNc1ccc(OC)cc1OC", "note": "[Example 45, o,p-Dimethoxy-N-dodecylaminobenzene]", "values": [
      {"measurement": "NITROSAMINES Test", "setting": "[1]; [3]", "value": 2.5, "unit": "ppb"}
    ]}
  ]
}
